Publication PMC8364686, “Safety, tolerability, pharmacokinetics and pharmacodynamics of single oral doses of BI 187004, an inhibitor of 11beta-hydroxysteroid dehydrogenase-1, in healthy male volunteers with overweight or obesity” (Clinical Diabetes and Endocrinology, 2021)

Assay: Plasma pharmacokinetics of BI 187004 after single oral doses (LC–MS/MS)
Settings: male, human, plasma, po; for concentration at 6 h: planned time 6 h; for concentration at 8 h: planned time 8 h; for concentration at 10 h: planned time 10 h; for concentration at 12 h: planned time 12 h; for concentration at 36 h: planned time 36 h; for concentration at 48 h: planned time 48 h; for concentration at 72 h: planned time 72 h; for concentration at 96 h: planned time 96 h; for concentration at 0.5 h: planned time 0.5 h; for concentration at 1 h: planned time 1 h; for concentration at 1.5 h: planned time 1.5 h; for concentration at 2 h: planned time 2 h; for concentration at 2.5 h: planned time 2.5 h; for concentration at 3 h: planned time 3 h; for concentration at 4 h: planned time 4 h; for concentration at 5 h: planned time 5 h
[1] = 20 mg, BI 187004 plasma concentrations, 20 mg single oral, gMean
[2] = 20 mg, BI 187004 plasma concentrations, 20 mg single oral, Max
[3] = 20 mg, BI 187004 plasma concentrations, 20 mg single oral, Mean
[4] = 20 mg, BI 187004 plasma concentrations, 20 mg single oral, Median
[5] = 20 mg, BI 187004 plasma concentrations, 20 mg single oral, Min
[6] = 40 mg, BI 187004 plasma concentrations, 40 mg single oral, Max
[7] = 40 mg, BI 187004 plasma concentrations, 40 mg single oral, Mean
[8] = 40 mg, BI 187004 plasma concentrations, 40 mg single oral, Median
[9] = 40 mg, BI 187004 plasma concentrations, 40 mg single oral, Min
[10] = 40 mg, BI 187004 plasma concentrations, 40 mg single oral, gMean
[11] = 40 mg, BI 187004 plasma concentrations, 40 mg single oral, individual subjects

`N#Cc1ccc2c(c1)[C@H]1CCCN(C(=O)c3ccc4[nH]cnc4c3)[C@H]1C2` [BI 187004] showed a concentration at 6 h [1] of 547 nM, a concentration at 8 h [2] of 645 nM and a concentration at 8 h [3] of 464 nM. It also gave a concentration at 8 h [4] of 398 nM, a concentration at 8 h [5] of 354 nM and a concentration at 8 h [1] of 449 nM. It also gave a concentration at 8 h (20 mg, BI 187004 plasma concentrations, 20 mg single oral, individual subjects) of 645 nM, a concentration at 10 h [2] of 529 nM and a concentration at 10 h [3] of 398 nM. For the same molecule, the concentration at 10 h [4] was 398 nM, the concentration at 10 h [5] was 253 nM and the concentration at 10 h [1] was 382 nM. It also gave a concentration at 12 h [2] of 457 nM, a concentration at 12 h [3] of 331 nM and a concentration at 12 h [4] of 311 nM. The concentration at 12 h [5] was 221 nM, the concentration at 12 h [1] was 316 nM and the concentration at 24 h (20 mg, BI 187004 plasma concentrations, 20 mg single oral, planned time 24 h, Max) was 353 nM. It also gave a concentration at 24 h (20 mg, BI 187004 plasma concentrations, 20 mg single oral, planned time 24 h, Mean) of 187 nM, a concentration at 24 h (20 mg, BI 187004 plasma concentrations, 20 mg single oral, planned time 24 h, Median) of 155 nM and a concentration at 24 h (20 mg, BI 187004 plasma concentrations, 20 mg single oral, planned time 24 h, Min) of 85.8 nM. The concentration at 24 h (20 mg, BI 187004 plasma concentrations, 20 mg single oral, planned time 24 h, gMean) was 161 nM, the concentration at 36 h [2] was 145 nM and the concentration at 36 h [3] was 67.3 nM. It also gave a concentration at 36 h [4] of 51.1 nM, a concentration at 36 h [5] of 27.8 nM and a concentration at 36 h [1] of 55.4 nM. The concentration at 48 h [2] was 104 nM, the concentration at 48 h [3] was 45.6 nM and the concentration at 48 h [4] was 34.4 nM. For the same molecule, the concentration at 48 h [5] was 15.8 nM, the concentration at 48 h [1] was 35.9 nM and the concentration at 72 h [2] was 43.9 nM. It also gave a concentration at 72 h [3] of 20.5 nM, a concentration at 72 h [4] of 16.4 nM and a concentration at 72 h [5] of 6.98 nM. For the same molecule, the concentration at 72 h [1] was 16.5 nM, the concentration at 96 h [2] was 18.2 nM and the concentration at 96 h [3] was 10.4 nM. It also gave a concentration at 96 h [4] of 9.48 nM, a concentration at 96 h [5] of 5.78 nM and a concentration at 96 h [1] of 9.42 nM. It also gave a concentration at 24 h (20 mg, C24 gMean (%gCV), 20 mg single oral dose) of 161 nM, an AUC(0-inf) (40 mg) of 25.9 µM·h and an AUC(0-t) (40 mg) of 19.9 µM·h. It also gave a Cmax (40 mg) of 2210 nM, a Tmax (40 mg) of 1 h and a Vd/F (40 mg) of 123 L. For the same molecule, the half-life (40 mg) was 18.9 h, the concentration at 0.5 h [6] was 2530 nM and the concentration at 0.5 h [7] was 1760 nM. It also gave a concentration at 0.5 h [8] of 1980 nM, a concentration at 0.5 h [9] of 487 nM and a concentration at 0.5 h [10] of 1520 nM. The concentration at 1 h [6] was 2820 nM, the concentration at 1 h [7] was 2170 nM and the concentration at 1 h [8] was 2410 nM. For the same molecule, the concentration at 1 h [9] was 974 nM, the concentration at 1 h [10] was 2050 nM and the concentration at 1.5 h [6] was 2610 nM. The concentration at 1.5 h [7] was 1950 nM, the concentration at 1.5 h [8] was 2160 nM and the concentration at 1.5 h [9] was 1020 nM. It also gave a concentration at 1.5 h [10] of 1870 nM, a concentration at 2 h [6] of 2410 nM and a concentration at 2 h [7] of 1760 nM. The concentration at 2 h [8] was 1860 nM, the concentration at 2 h [9] was 1040 nM and the concentration at 2 h [10] was 1700 nM. The concentration at 2.5 h [6] was 2180 nM, the concentration at 2.5 h [7] was 1750 nM and the concentration at 2.5 h [8] was 1870 nM. It also gave a concentration at 2.5 h [9] of 1160 nM, a concentration at 2.5 h [10] of 1710 nM and a concentration at 2.5 h [11] of 2180 nM. For the same molecule, the concentration at 3 h [6] was 1810 nM, the concentration at 3 h [7] was 1530 nM and the concentration at 3 h [8] was 1560 nM. It also gave a concentration at 3 h [9] of 1130 nM, a concentration at 3 h [10] of 1510 nM and a concentration at 3 h [11] of 1680 nM. It also gave a concentration at 4 h [6] of 1700 nM, a concentration at 4 h [7] of 1460 nM and a concentration at 4 h [8] of 1530 nM. The concentration at 4 h [9] was 1020 nM, the concentration at 4 h [10] was 1440 nM and the concentration at 4 h [11] was 1640 nM. It also gave a concentration at 5 h [6] of 1610 nM, a concentration at 5 h [7] of 1320 nM and a concentration at 5 h [8] of 1350 nM. For the same molecule, the concentration at 5 h [9] was 888 nM, the concentration at 5 h [10] was 1290 nM and the concentration at 5 h [11] was 1440 nM. The concentration at 6 h [6] was 1400 nM, the concentration at 6 h [7] was 1120 nM and the concentration at 6 h [8] was 1130 nM. It also gave a concentration at 6 h [9] of 736 nM, a concentration at 6 h [10] of 1090 nM and a concentration at 6 h [11] of 1230 nM. The concentration at 8 h [6] was 1190 nM, the concentration at 8 h [7] was 951 nM and the concentration at 8 h [8] was 987 nM. The concentration at 8 h [9] was 606 nM, the concentration at 8 h [10] was 929 nM and the concentration at 8 h [11] was 1000 nM.
